Earlier results, collected in patent US20130337054A1, “TREATMENT OF EXCESSIVE MENSTRUAL BLOOD LOSS BY INTRAVAGINAL ADMINISTRATION OF LOW DOSES OF ANTIFIBRINOLYTIC OR HEMOSTATIC AGENT” (ARSTAT Inc., priority 2011, published 2013).

How the values were obtained:
menorrhagia = details: oral, cited from earlier work
[1] = tested on: menorrhagia (menstrual blood loss); details: oral; cited from earlier work
[2] = cited from earlier work
[3] = tested on: postoperative bleeding complications; details: mouthwash, compared to placebo; cited from earlier work
postoperative blood loss = details: cited from earlier work

Compound	risk of gastrointestinal adverse events (menorrhagia; 6 g/day)	efficacy in relation to dose (menorrhagia; EMEA 2000)	difference versus placebo in reduction of large stains, small and large clots and changes in serum ferritin levels [1]	plasma concentration ([2]; after a mouth rinse)	saliva concentration, maximum level ([2]; after a mouth rinse)	time saliva concentration remained at a therapeutic level ([2]; after a mouth rinse)	drug in saliva samples ([2]; after an oral tablet)	mean drug plasma concentration ([2]; after an oral tablet) [ng/mL]	incidence of postoperative bleeding complications [3]	plasma drug levels (postoperative blood loss; in vivo)	postoperative blood loss (postoperative blood loss; locally administered)
NC[C@H]1CC[C@H](C(=O)O)CC1 [tranexamic acid]	increased	dose-dependent increase in efficacy	no statistically significant differences	below 2 mcg/mL	above 200 mcg/mL	more than two	not detected	7000	reduce the incidence		
aprotinin										without detectable plasma drug levels	Reduction
